Results reported in US20130165459A1, “PHARMACEUTICAL COMPOSITION AND DOSAGE FORMS OF ELINOGREL AND METHODS OF USE THEREOF” (NORVARTIS PHARMA AG, priority 2010, published 2013).
Several values for one entry are separate records, joined by “and”; a condition that tells them apart may be missing. Equal entries are not always repeated.

Test: contact angle measurement (wettability)
Format: physicochemical
Conditions: for Contact Angle: water, n = 2; for surface hydrophobicity: critical angle around 50°
Procedure: The contact angle instrument was EasyDrop DSA15E (Krüss, Hamburg, Germany). The syringe was a NE44, with a needle diameter of 0.5 mm (Krüss, Hamburg, Germany). The standards (Krüss, Hamburg, Germany) were CP24 20007107, contact angle Gauge#4=30.00°±0.3, Gauge#5=60.00°±0.3, Gauge#6=120.00°±0.3.
The powder was pressed (approx 50 mg powder, 3 tons, 2 min) in tablets and analyzed by contact angle measuremnt. The angle between the solid and the liquid is measured after 0 and up to 60 seconds using water.
All determinations used the above method, and the limit for the standards measurements are well within the given limits.

Row | Contact Angle (0 sec) | Contact Angle (30 sec) | Contact Angle (60 sec) | surface hydrophobicity | SMILES
1 | 78.8 ° | 53.3 ° | 51.0 ° | hydrophobic | CNc1cc2[nH]c(=O)n(-c3ccc(NC(=O)[N-]S(=O)(=O)c4ccc(Cl)s4)cc3)c(=O)c2cc1F.[K+] [A]
2 | 72.4 ° and 79.7 ° | 54.6 ° and 55.2 ° | 53.5 ° and 52.8 ° | hydrophobic | CNc1cc2[nH]c(=O)n(-c3ccc(NC(=O)[N-]S(=O)(=O)c4ccc(Cl)s4)cc3)c(=O)c2cc1F.[K+] [B]
3 | 65.9 ° | 60.8 ° | 60.1 ° |  | CNc1cc2[nH]c(=O)n(-c3ccc(NC(=O)NS(=O)(=O)c4ccc(Cl)s4)cc3)c(=O)c2cc1F [Free acid, [4-(6-fluoro-7-methylamino-2,4-dioxo-1,4-dihydro-2H-quinazolin-3-yl)-phenyl]-5-chloro-thiophen-2-yl-sulfonylurea]
